Series [1] relates to blood glucose concentration. As to the kind of experiment: Blood glucose lowering after single oral administration, fasting metabolically healthy guinea pigs. It is filed as in vivo, guinea pigs (young cross-bred male). Particulars: Cavia porcellus.
Series [2] can be described thus: Acute toxicity, guinea pig, peroral. The settings on record: in vivo, po; Table III; guinea pig p.o.; preliminary results. The text has this:
Column C provides data relating to acute toxicity (LD50; guinea pig, peroral administration).

Series [3] concerns blood glucose concentration. As to the kind of experiment: Blood glucose lowering after single oral administration, fasting metabolically healthy rats.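 As to all read-outs here: young male Sprague-Dawley rats fasted 18 h, blood glucose sampled before dosing and at 3 and 5 h afterwards, compared with a solvent-treated control group.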 Particulars: for ED50: Rattus norvegicus, po, 5 h; for ED50 (15%): dose which effects a lowering of the blood glucose concentration by 15% in 50% of the animals: Table II, rats p.o., α-methylenecarboxylic acid intermediates.
Series [4] concerns blood glucose concentration. The settings on record: guinea pig, in vivo, po; cited from earlier work.
Another series has as its system guinea pig. Particulars: Table III; guinea pig p.o.; cited according to Proske et al. 1962; cited from earlier work.
A short description of the next series: in vivo. Particulars: mouse, po, Table I, mice p.o., 7 days observation, read-out: LD50 (acute toxicity). The protocol:
2. Determination of the toxicity
Various doses of the substances (volume: 10 ml/kg) are administered orally by means of a stomach tube. The observation time is 7 days.

Series [5] concerns blood glucose concentration. Particulars: rat, in vivo, po, 300 min.
The mark [6] stands for this setting: 5 h, read-out: ED50 (15%): dose which effects a lowering of the blood glucose concentration by at least 15% in 50% of the animals.
Setting [7] is: 5 h, read-out: ED50 (25%): dose which effects a lowering of the blood glucose concentration by at least 25% in 50% of the animals.
Setting [8] is: read-out: ED50 (15%): dose which effects a lowering of the blood glucose concentration by at least 15% in 50% of the animals.
The mark [9] stands for this setting: read-out: ED50 (25%): dose which effects a lowering of the blood glucose concentration by at least 25% in 50% of the animals.
[10] abbreviates: Table III B, guinea pig p.o., single dose, 5 hours, vs control group, read-out: ED50 (15%): dose which effects a lowering of the blood glucose concentration by at least 15% in 50% of the animals.

Consider 15 compounds from US4324796A, “Substituted oxiranecarboxylic acids, their use and medicaments containing them” (BYK Gulden Lomberg Chemische Fabrik Gesellschaft mit …, priority 1979, dated 1982).

Read-outs that look alike come from different tables or passages of the source.

As for `O=C([O-])C1(CCCCCc2ccc(Cl)cc2)CO1.[Na+]` (stereo not drawn), the ED50 in series [1] (setting [6]) was found to be 3 mg/kg; in series [1] (setting [7]), 8 mg/kg; in series [3] (setting [8]), 5 mg/kg; in series [3] (setting [9]), 16 mg/kg. The compound further gave an LD50 in series [2] of 300 to 400 mg/kg.
In the same order, the values of `O=C([O-])C1(CCCc2ccc(Cl)cc2)CO1.[Na+]` (stereo not drawn) are 12 mg/kg, 26 mg/kg, 20 mg/kg, 41 mg/kg and 500 to 600 mg/kg.
With `O=C([O-])C1(CCCc2cccc(C(F)(F)F)c2)CO1.[Na+]` (stereo not drawn), the ED50 worked out at 6 mg/kg in series [1] (setting [6]), 11 mg/kg in series [1] (setting [7]), 14 mg/kg in series [3] (setting [8]) and 23 mg/kg in series [3] (setting [9]). The LD50 in series [2] fell in the range of 300 to 400 mg/kg.
The corresponding values for `O=C([O-])C1(CCCCCc2ccccc2)CO1.[Na+]` (stereo not drawn) are 3 mg/kg, 7 mg/kg, 2 mg/kg, 12 mg/kg and 500 to 600 mg/kg.
Consider “2-(3-Phenylpropyl)oxirane-2-carboxylic acid methyl ester [Example 13]”, for which, in series [3], the “ED50 (15%): dose which effects a lowering of the blood glucose concentration by 15% in 50% of the animals” value is on record as 252 mg/kg.
Same read-out and setting: with “2-Benzyloxirane-2-carboxylic acid ethyl ester [Example 15]” the figure was 80 mg/kg.
As for `CCCCNC(=N)NC(=N)N` [Serial No. 1, Buformin, reference compound], the “ED50 (25%): dose which effects a lowering of the blood glucose concentration by 25% in 50% of the animals” value in series [4] is 40 to 50 mg/kg. In the series on guinea pig, the “LD50 (acute toxicity)” value was 58 mg/kg. In addition, the ED50 is above 100 mg/kg in series [3] (setting [8]) and 194 mg/kg in series [3] (setting [9]).
In the case of `[H]/N=C(/N)N/C(=N/[H])NCCc1ccccc1` [Serial No. 2, Phenformin, reference compound], the ED50 was 20 to 25 mg/kg in series [4], above 150 mg/kg in series [3] (setting [8]) and above 343 mg/kg in series [3] (setting [9]).
Consider `CCOC(=O)C1(CCCc2ccc(Cl)cc2)CO1` (stereo not drawn) [Serial No. 3, 2-[3-(4-Chlorophenyl)propyl]oxirane-2-carboxylic acid ethyl ester], for which the values for the ED50 in series [1] (setting [10]), in series [3] (setting [8]) and in series [3] (setting [9]) were 11 mg/kg, 40 mg/kg and 54 mg/kg, respectively. Also, the LD50 in the series “in vivo” was found to be 730 mg/kg.
In the same order, the values of `CCOC(=O)C1(CCCc2cccc(C(F)(F)F)c2)CO1` (stereo not drawn) [Serial No. 5, 2-[3-(3-Trifluoromethylphenyl)propyl]oxirane-2-carboxylic acid ethyl ester] are 3 mg/kg, 6 mg/kg, 24 mg/kg and around 300 mg/kg.
As to `CCOC(=O)C1(CCCCCc2ccccc2)CO1` (stereo not drawn) [Serial No. 7, 2-(5-Phenylpentyl)oxirane-2-carboxylic acid ethyl ester], the ED50 in series [1] (setting [10]) came out at 11 mg/kg; in series [5] it was 21 mg/kg; in series [3] (setting [8]), 10 mg/kg. The 50% lethal dose (LD50) in the series “in vivo” was determined as 230 mg/kg.
On to `CCOC(=O)C1(CCCCCc2ccc(Cl)cc2)CO1` (stereo not drawn) [Serial No. 9, 2-[5-(4-Chlorophenyl)pentyl]oxirane-2-carboxylic acid ethyl ester], for which the ED50 came out at 5 mg/kg in series [1] (setting [10]), 3 mg/kg in series [3] (setting [8]) and 24 mg/kg in series [3] (setting [9]). In addition, the LD50 in the series “in vivo” stood at 275 mg/kg.
For `CCOC(=O)C1(CCCCc2ccccc2)CO1` (stereo not drawn) [Serial No. 11, 2-(4-Phenylbutyl)oxirane-2-carboxylic acid ethyl ester], the ED50 in series [3] (setting [8]) worked out at 67 mg/kg.
Take `CCOC(=O)C1(CCCc2cccc(Cl)c2)CO1` (stereo not drawn) [Serial No. 12, 2-[3-(3-Chlorophenyl)propyl]oxirane-2-carboxylic acid ethyl ester]: in series [3] (setting [8]), the ED50 is 59 mg/kg.
On to “Sodium 2-(3-phenylpropyl)oxirane-2-carboxylate [Example 14]”, for which the “ED50 (15%): dose which effects a lowering of the blood glucose concentration by 15% in 50% of the animals” value in series [3] is listed as above 253 mg/kg.
